Data: PubChem BioAssay AID330 (DTP/NCI, 2004)
Values joined by “and” are separate entries in the source; they are usually repeats but may differ in a detail not shown here. Identical values can stand only once. Toxic doses and inconclusive results are not listed. Rule for the calls: active = survival T/C of 150% or more; inactive = T/C below 125% in these data.

Test system: P388 leukemia ip, CD2F1 mice, survival T/C
Experiment: NCI In Vivo Anticancer Drug Screen. Data for tumor model P388 Leukemia (intraperitoneal) in CD2F1 (CDF1) mice
Details: endpoint: median survival time, higher = longer survival
Procedure, shortened: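 Mice carrying the transplanted tumor received test compound or vehicle. Survival was recorded in each group, and the value is the treated-group measurement divided by that of the vehicle-treated control group.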

[1] = dose: 6.25 mg/kg/injection, schedule: Q01DX009 (ip), vehicle: saline
[2] = dose: 100.0 mg/kg/injection, schedule: Q01DX001 (ip), vehicle: saline
[3] = dose: 60.0 mg/kg/injection, schedule: Q01DX005 (ip), vehicle: saline
[4] = dose: 120.0 mg/kg/injection, schedule: Q01DX005 (ip), vehicle: saline
[5] = dose: 50.0 mg/kg/injection, schedule: Q01DX005 (ip), vehicle: saline with Tween-80
[6] = dose: 100.0 mg/kg/injection, schedule: Q01DX005 (ip), vehicle: saline with Tween-80
[7] = dose: 200.0 mg/kg/injection, schedule: Q01DX005 (ip), vehicle: saline with Tween-80

Measured: T/C

CNC(=O)ON(C(C)=O)C(=O)NC
inactive: dose: 3.13 mg/kg/injection, schedule: Q03HX015 (ip), vehicle: water 101 % of control and 118 % of control | dose: 6.25 mg/kg/injection, schedule: Q01DX001 (iv), vehicle: saline 95 % of control | dose: 6.25 mg/kg/injection, schedule: Q01DX005 (iv), vehicle: saline 100 % of control | [1] 118 % of control | dose: 6.25 mg/kg/injection, schedule: Q03HX015 (ip), vehicle: water 121 % of control and 98 % of control | dose: 10.0 mg/kg/injection, schedule: Q01DX009 (ip), vehicle: saline 114 % of control and 119 % of control and 120 % of control | dose: 12.5 mg/kg/injection, schedule: Q01DX001 (iv), vehicle: saline 98 % of control | dose: 12.5 mg/kg/injection, schedule: Q01DX005 (ip), vehicle: saline 116 % of control | dose: 12.5 mg/kg/injection, schedule: Q01DX005 (iv), vehicle: saline 102 % of control | dose: 12.5 mg/kg/injection, schedule: Q01DX005 (oral), vehicle: saline 101 % of control | dose: 12.5 mg/kg/injection, schedule: Q01DX009 (ip), vehicle: water 103 % of control and 120 % of control | dose: 12.5 mg/kg/injection, schedule: Q01DX009 (oral), vehicle: saline 103 % of control | dose: 12.5 mg/kg/injection, schedule: Q03HX015 (ip), vehicle: saline 115 % of control | dose: 12.5 mg/kg/injection, schedule: Q03HX015 (ip), vehicle: water 99 % of control and 116 % of control | dose: 20.0 mg/kg/injection, schedule: Q01DX009 (ip), vehicle: saline 121 % of control | dose: 25.0 mg/kg/injection, schedule: Q01DX001 (ip), vehicle: saline 106 % of control | dose: 25.0 mg/kg/injection, schedule: Q01DX001 (iv), vehicle: saline 100 % of control | dose: 25.0 mg/kg/injection, schedule: Q01DX001 (oral), vehicle: saline 98 % of control | dose: 25.0 mg/kg/injection, schedule: Q01DX005 (ip), vehicle: saline 116 % of control | dose: 25.0 mg/kg/injection, schedule: Q01DX005 (iv), vehicle: saline 104 % of control | dose: 25.0 mg/kg/injection, schedule: Q01DX005 (oral), vehicle: saline 104 % of control | dose: 25.0 mg/kg/injection, schedule: Q01DX009 (ip), vehicle: water 106 % of control | dose: 25.0 mg/kg/injection, schedule: Q01DX009 (oral), vehicle: saline 120 % of control | dose: 25.0 mg/kg/injection, schedule: Q03HX015 (ip), vehicle: water 107 % of control | dose: 40.0 mg/kg/injection, schedule: Q01DX009 (ip), vehicle: saline 124 % of control | dose: 50.0 mg/kg/injection, schedule: Q01DX001 (ip), vehicle: saline 111 % of control | dose: 50.0 mg/kg/injection, schedule: Q01DX001 (iv), vehicle: saline 101 % of control and 102 % of control | dose: 50.0 mg/kg/injection, schedule: Q01DX001 (oral), vehicle: saline 97 % of control | dose: 50.0 mg/kg/injection, schedule: Q01DX005 (ip), vehicle: saline 114 % of control | dose: 50.0 mg/kg/injection, schedule: Q01DX005 (iv), vehicle: saline 106 % of control and 108 % of control | dose: 50.0 mg/kg/injection, schedule: Q01DX005 (oral), vehicle: saline 110 % of control | dose: 50.0 mg/kg/injection, schedule: Q01DX009 (ip), vehicle: water 107 % of control | dose: 50.0 mg/kg/injection, schedule: Q01DX009 (oral), vehicle: saline 115 % of control | dose: 50.0 mg/kg/injection, schedule: Q03HX015 (ip), vehicle: water 112 % of control | dose: 80.0 mg/kg/injection, schedule: Q01DX009 (ip), vehicle: saline 121 % of control | [2] 105 % of control | dose: 100.0 mg/kg/injection, schedule: Q01DX001 (iv), vehicle: saline 99 % of control and 101 % of control | dose: 100.0 mg/kg/injection, schedule: Q01DX001 (oral), vehicle: saline 103 % of control | dose: 100.0 mg/kg/injection, schedule: Q01DX005 (iv), vehicle: saline 114 % of control and 115 % of control | dose: 100.0 mg/kg/injection, schedule: Q01DX005 (oral), vehicle: saline 120 % of control | dose: 100.0 mg/kg/injection, schedule: Q01DX009 (ip), vehicle: water 121 % of control | dose: 200.0 mg/kg/injection, schedule: Q01DX001 (iv), vehicle: saline 107 % of control | dose: 200.0 mg/kg/injection, schedule: Q01DX001 (oral), vehicle: saline 103 % of control | dose: 200.0 mg/kg/injection, schedule: Q01DX005 (oral), vehicle: saline 116 % of control | dose: 200.0 mg/kg/injection, schedule: Q01DX009 (ip), vehicle: water 123 % of control | dose: 400.0 mg/kg/injection, schedule: Q01DX001 (oral), vehicle: saline 116 % of control

O=C(OCCO)c1c(Cl)c(Cl)c(Cl)c(Cl)c1-c1c2cc(Br)c(=O)c(Br)c-2oc2c(Br)c(O)c(Br)cc12
inactive: [3] 94 % of control | [4] 92 % of control

CS(=O)CC(Nc1ccccc1)c1ccccc1 (centres undefined)
inactive: dose: 60.0 mg/kg/injection, schedule: Q01DX005 (ip), vehicle: Klucel (hydroxypropylcellulose) (HPC) 108 % of control | dose: 120.0 mg/kg/injection, schedule: Q01DX005 (ip), vehicle: Klucel (hydroxypropylcellulose) (HPC) 95 % of control | dose: 240.0 mg/kg/injection, schedule: Q01DX005 (ip), vehicle: Klucel (hydroxypropylcellulose) (HPC) 87 % of control

O=C(c1ccccc1)C(F)(F)C(F)(F)F
inactive: dose: 25.0 mg/kg/injection, schedule: Q01DX009 (ip), vehicle: saline with Tween-80 107 % of control | dose: 50.0 mg/kg/injection, schedule: Q01DX009 (ip), vehicle: saline with Tween-80 109 % of control | dose: 100.0 mg/kg/injection, schedule: Q01DX009 (ip), vehicle: saline with Tween-80 110 % of control | dose: 200.0 mg/kg/injection, schedule: Q01DX009 (ip), vehicle: saline with Tween-80 109 % of control

CCCC(=O)C(CC)C(O)(C(F)(F)F)C(F)(F)F (centres undefined)
inactive: dose: 50.0 mg/kg/injection, schedule: Q01DX009 (ip), vehicle: saline 104 % of control | dose: 100.0 mg/kg/injection, schedule: Q01DX009 (ip), vehicle: saline 104 % of control | dose: 200.0 mg/kg/injection, schedule: Q01DX009 (ip), vehicle: saline 109 % of control

COC(=O)C(CC(=O)c1cc2c(cc1Br)OCO2)(Cc1cc(OC)c(OC)c(OC)c1I)C(=O)OC
inactive: dose: 3.12 mg/kg/injection, schedule: Q01DX009 (ip), vehicle: saline 97 % of control | [1] 98 % of control | dose: 12.5 mg/kg/injection, schedule: Q01DX009 (ip), vehicle: saline 97 % of control | dose: 25.0 mg/kg/injection, schedule: Q01DX009 (ip), vehicle: saline 98 % of control | [2] 100 % of control | dose: 200.0 mg/kg/injection, schedule: Q01DX001 (ip), vehicle: saline 98 % of control | dose: 400.0 mg/kg/injection, schedule: Q01DX001 (ip), vehicle: saline 100 % of control

CC(C)(C)OC(=O)c1cccc(Br)c1
inactive: [5] 101 % of control | [6] 104 % of control | [7] 105 % of control

CCC1COC(CC)N1 (centres undefined)
inactive: [5] 113 % of control and 95 % of control | [6] 103 % of control

NC(=O)N/N=C/c1cccs1
inactive: dose: 3.12 mg/kg/injection, schedule: Q01DX009 (ip), vehicle: saline with Tween-80 97 % of control | dose: 6.25 mg/kg/injection, schedule: Q01DX009 (ip), vehicle: saline with Tween-80 97 % of control | dose: 12.5 mg/kg/injection, schedule: Q01DX009 (ip), vehicle: saline with Tween-80 93 % of control

c1ccc(C(=C2CCCCC2)c2ccccc2)cc1
inactive: [5] 100 % of control | [6] 100 % of control | [7] 98 % of control

CC(C)CC(=O)Cc1nc2n(c1O)C(=N)N=N2
inactive: [3] 105 % of control | [4] 98 % of control | dose: 240.0 mg/kg/injection, schedule: Q01DX005 (ip), vehicle: saline 110 % of control

C=C(Cl)C(=NC1CCCCC1)NC(C)(C)C
inactive: dose: 0.79 mg/kg/injection, schedule: Q01DX005 (ip), vehicle: Klucel (hydroxypropylcellulose) (HPC) 97 % of control | dose: 1.56 mg/kg/injection, schedule: Q01DX005 (ip), vehicle: Klucel (hydroxypropylcellulose) (HPC) 101 % of control and 107 % of control | dose: 3.12 mg/kg/injection, schedule: Q01DX005 (ip), vehicle: Klucel (hydroxypropylcellulose) (HPC) 104 % of control and 107 % of control and 109 % of control | dose: 6.25 mg/kg/injection, schedule: Q01DX005 (ip), vehicle: Klucel (hydroxypropylcellulose) (HPC) 116 % of control | dose: 12.5 mg/kg/injection, schedule: Q01DX005 (ip), vehicle: Klucel (hydroxypropylcellulose) (HPC) 110 % of control
